Reference: patent EP1509285B1, “SYNERGISTIC COMPOSITION OF TRANS-TETRACOS-15-ENOIC ACID AND APOCYNIN AND USE THEREOF” (COUNCIL OF SCIENTIFIC AND INDUSTRIAL RESEARCH, priority 2002, dated 2003)

System: bile flow and bile solids
Test: Choleretic activity: bile flow and bile solids after bile duct cannulation in normal anaesthetised rats
Format: in vivo
Conditions: 50 mg kg-1 i.d., bile collected 0-5 hours, mean ±SE
Excerpt: The liver, by producing bile, plays an important role in digestion. The presence of bile in the intestine is necessary to accomplish the digestion and absorption of fats as well as absorption of the fat-soluble vitamins- A, D, E & K. Bile is also an important vehicle of excretion. It removes many drugs, toxins, bile pigments and various inorganic substances either derived from the diet or synthesized by the body as cholesterol or as cholic acid.
Effect on the liver bile flow of test drug and that of vehicle is carried out after cannulating the bile duct in normal anaesthesied rats. Bile collected is from each animal from 0-5 hours (Klaassen, 1969, Donal et al.1953). (Table 5)

With `C[C@H](CCC(=O)O)[C@H]1CC[C@H]2[C@@H]3C(=O)C[C@@H]4CC(=O)CC[C@]4(C)[C@H]3CC(=O)[C@]12C` [DHC, Dehydrocholic acid, reference compound] the “Bile parameters % Increase (as compared to normal) Bile flow” value was 38.40±2.76 ml% and the “Bile parameters % Increase (as compared to normal) Bile solids” value was 28.13±3.89 mg%.
